Test results reported in PubChem BioAssay AID248 (DTP/NCI, 2004).
Where “and” joins values, the source holds several entries; their conditions need not be identical. Identical values can stand only once. Inconclusive results and toxic doses are left out. Rule as the data show it: active = T/C of 150% or more; inactive = T/C below 125%.

System: L1210 leukemia ip in BDF1 mice, survival T/C
Assay: NCI In Vivo Anticancer Drug Screen. Data for tumor model L1210 Leukemia (intraperitoneal) in B6D2F1 (BDF1) mice
Conditions: endpoint: mean survival time, higher = longer survival
Method in brief: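 Transplanted-tumor mice were given test agent; controls received vehicle only. Survival readings from the two groups were divided (treated over control).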

[1] = dose: 100.0 mg/kg/injection, schedule: Q04DX003 (ip), vehicle: saline with Tween-80
[2] = dose: 200.0 mg/kg/injection, schedule: Q04DX003 (ip), vehicle: saline with Tween-80
[3] = dose: 400.0 mg/kg/injection, schedule: Q04DX003 (ip), vehicle: saline with Tween-80
[4] = dose: 100.0 mg/kg/injection, schedule: Q04DX002 (ip), vehicle: Klucel (hydroxypropylcellulose) (HPC)
[5] = dose: 200.0 mg/kg/injection, schedule: Q04DX002 (ip), vehicle: Klucel (hydroxypropylcellulose) (HPC)
[6] = dose: 400.0 mg/kg/injection, schedule: Q04DX002 (ip), vehicle: Klucel (hydroxypropylcellulose) (HPC)
[7] = dose: 200.0 mg/kg/injection, schedule: Q01DX001 (ip), vehicle: saline
[8] = dose: 100.0 mg/kg/injection, schedule: Q04DX002 (ip), vehicle: saline with Tween-80
[9] = dose: 200.0 mg/kg/injection, schedule: Q04DX002 (ip), vehicle: saline with Tween-80
[10] = dose: 100.0 mg/kg/injection, schedule: Q01DX009 (ip), vehicle: Klucel (hydroxypropylcellulose) (HPC)
[11] = dose: 100.0 mg/kg/injection, schedule: Q01DX009 (ip), vehicle: saline with Tween-80
[12] = dose: 200.0 mg/kg/injection, schedule: Q01DX009 (ip), vehicle: saline with Tween-80
[13] = dose: 100.0 mg/kg/injection, schedule: Q01DX001 (ip), vehicle: Klucel (hydroxypropylcellulose) (HPC)
[14] = dose: 200.0 mg/kg/injection, schedule: Q01DX001 (ip), vehicle: Klucel (hydroxypropylcellulose) (HPC)
[15] = dose: 400.0 mg/kg/injection, schedule: Q01DX001 (ip), vehicle: Klucel (hydroxypropylcellulose) (HPC)
[16] = dose: 25.0 mg/kg/injection, schedule: Q01DX009 (ip), vehicle: saline with Tween-80
[17] = dose: 50.0 mg/kg/injection, schedule: Q01DX009 (ip), vehicle: saline with Tween-80
[18] = dose: 50.0 mg/kg/injection, schedule: Q01DX001 (ip), vehicle: saline
[19] = dose: 100.0 mg/kg/injection, schedule: Q01DX001 (ip), vehicle: carboxymethylcellulose (CMC)
[20] = dose: 400.0 mg/kg/injection, schedule: Q01DX001 (ip), vehicle: carboxymethylcellulose (CMC)

Measured: T/C

O=S(=O)(Cc1ccccc1)CS(=O)(=O)Cc1ccccc1
inactive: dose: 75.0 mg/kg/injection, schedule: Q04DX003 (ip), vehicle: saline 92 % of control | [1] 106 % of control | dose: 150.0 mg/kg/injection, schedule: Q04DX003 (ip), vehicle: saline 90 % of control | [2] 112 % of control | dose: 300.0 mg/kg/injection, schedule: Q04DX003 (ip), vehicle: saline 87 % of control | [3] 98 % of control

CCN(CC)CCCC(C)Nc1cc(N)nc2nc(-c3ccccc3)cnc12 (stereo not given) (tested in a mixture with another compound)
inactive: dose: 75.0 mg/kg/injection, schedule: Q01DX001 (ip), vehicle: saline 86 % of control and 91 % of control | dose: 150.0 mg/kg/injection, schedule: Q01DX001 (ip), vehicle: saline 97 % of control

O=C(CC(C[N+](=O)[O-])c1ccccc1)c1ccccc1 (stereo not given)
inactive: [4] 96 % of control | [5] 100 % of control | [6] 96 % of control

CC1(C)C2CCCC1(CCOC(=O)COc1cc(Cl)c(Cl)cc1Cl)C2 (stereo not given)
inactive: [4] 98 % of control | [5] 91 % of control | [6] 88 % of control

CN=C(N)c1ccc(C(=O)OCCOC)cc1
inactive: dose: 100.0 mg/kg/injection, schedule: Q01DX001 (ip), vehicle: saline 96 % of control | [7] 107 % of control | dose: 400.0 mg/kg/injection, schedule: Q01DX001 (ip), vehicle: saline 105 % of control

O=C1c2ccccc2C(=O)N1N1C(=O)C2C3CCC(O3)C2C1=O (stereo not given)
inactive: dose: 100.0 mg/kg/injection, schedule: Q01DX001 (ip), vehicle: saline with Tween-80 97 % of control and 91 % of control | [8] 101 % of control and 106 % of control | [1] 93 % of control and 95 % of control | dose: 200.0 mg/kg/injection, schedule: Q01DX001 (ip), vehicle: saline with Tween-80 94 % of control and 90 % of control | [9] 105 % of control | [2] 95 % of control and 100 % of control | dose: 400.0 mg/kg/injection, schedule: Q01DX001 (ip), vehicle: saline with Tween-80 96 % of control and 97 % of control | dose: 400.0 mg/kg/injection, schedule: Q04DX002 (ip), vehicle: saline with Tween-80 94 % of control and 101 % of control | [3] 95 % of control and 100 % of control

Cn1nc(NC(=O)C(C)(C)C)c(C#N)c1C#N
inactive: dose: 50.0 mg/kg/injection, schedule: Q04DX002 (ip), vehicle: saline with Tween-80 95 % of control | [8] 95 % of control | [9] 98 % of control

CC(C)(CO)Nc1ccccc1
inactive: [1] 114 % of control | [2] 90 % of control | [3] 97 % of control

O=[N+]([O-])c1ccc(N/N=C(\Cc2ccccc2)c2ccccc2)c([N+](=O)[O-])c1
inactive: [1] 91 % of control | [2] 91 % of control | [3] 87 % of control

CCCCOCCCNC1=C(Cl)C(=O)c2ccccc2C1=O
inactive: dose: 12.5 mg/kg/injection, schedule: Q01DX001 (ip), vehicle: carboxymethylcellulose (CMC) 92 % of control | dose: 25.0 mg/kg/injection, schedule: Q01DX001 (ip), vehicle: carboxymethylcellulose (CMC) 96 % of control | dose: 50.0 mg/kg/injection, schedule: Q01DX001 (ip), vehicle: carboxymethylcellulose (CMC) 105 % of control

O=c1[nH]c2ccccc2c(C(Cl)(Cl)Cl)c1Cl
inactive: dose: 12.5 mg/kg/injection, schedule: Q01DX009 (ip), vehicle: Klucel (hydroxypropylcellulose) (HPC) 93 % of control | dose: 25.0 mg/kg/injection, schedule: Q01DX009 (ip), vehicle: Klucel (hydroxypropylcellulose) (HPC) 90 % of control | dose: 50.0 mg/kg/injection, schedule: Q01DX009 (ip), vehicle: Klucel (hydroxypropylcellulose) (HPC) 100 % of control and 108 % of control | [10] 93 % of control

CC(=O)CCCC1C(=O)N(c2ccccc2)N(c2ccccc2)C1=O
inactive: dose: 100.0 mg/kg/injection, schedule: Q04DX003 (ip), vehicle: Klucel (hydroxypropylcellulose) (HPC) 102 % of control | dose: 200.0 mg/kg/injection, schedule: Q04DX003 (ip), vehicle: Klucel (hydroxypropylcellulose) (HPC) 101 % of control | dose: 400.0 mg/kg/injection, schedule: Q04DX003 (ip), vehicle: Klucel (hydroxypropylcellulose) (HPC) 96 % of control

O=C(/C=C/c1ccccc1)c1ccccc1O
inactive: [11] 89 % of control | [1] 100 % of control | [12] 86 % of control | [2] 98 % of control | dose: 400.0 mg/kg/injection, schedule: Q01DX009 (ip), vehicle: saline with Tween-80 94 % of control | [3] 98 % of control

CN(C)c1ccc(/C=N/NC=O)c(Cl)c1
inactive: dose: 10.0 mg/kg/injection, schedule: Q01DX001 (ip), vehicle: acetone 103 % of control | dose: 20.0 mg/kg/injection, schedule: Q01DX001 (ip), vehicle: acetone 110 % of control | dose: 40.0 mg/kg/injection, schedule: Q01DX001 (ip), vehicle: acetone 95 % of control

CC(C)c1ccc(C(=O)Nc2ccc(OCCCc3c(N)nc(N)nc3N)cc2)cc1S(=O)(=O)F
inactive: [13] 93 % of control | [14] 98 % of control | [15] 96 % of control

COc1ccccc1NCS(=O)(=O)O
inactive: [1] 98 % of control | [2] 102 % of control | [3] 100 % of control

COC(=O)C(CSCSC)NC(=O)/C=C/c1ccco1 (stereo not given)
inactive: [16] 107 % of control | [17] 107 % of control | [11] 102 % of control and 91 % of control | [1] 93 % of control | [2] 101 % of control | [3] 95 % of control

Nc1nc(N)c(N=Cc2ccc(N(CCCl)CCCl)cc2)c(N)n1
inactive: [18] 100 % of control | [19] 103 % of control | [7] 103 % of control | [20] 100 % of control

CC(=O)N(C)c1cc(N)ccc1OCc1ccccc1
inactive: dose: 12.5 mg/kg/injection, schedule: Q04DX003 (ip), vehicle: saline with Tween-80 91 % of control | [16] 100 % of control | dose: 25.0 mg/kg/injection, schedule: Q04DX003 (ip), vehicle: saline with Tween-80 98 % of control and 101 % of control | [17] 96 % of control | dose: 50.0 mg/kg/injection, schedule: Q04DX003 (ip), vehicle: saline with Tween-80 95 % of control and 102 % of control | [11] 102 % of control | [1] 95 % of control and 113 % of control | [2] 97 % of control

CC1(C)CC(=O)C2=C(C1)Nc1ccccc1NC2c1ccccc1 (stereo not given)
inactive: dose: 50.0 mg/kg/injection, schedule: Q04DX002 (ip), vehicle: Klucel (hydroxypropylcellulose) (HPC) 92 % of control | [4] 110 % of control and 113 % of control | [5] 92 % of control | [6] 98 % of control

Nc1nc(Nc2ccc(NC=O)cc2)c(NC=O)c(=O)[nH]1
inactive: [18] 89 % of control | [7] 86 % of control

CCNc1nc2c(N)ncnc2n1C1CC(O)C(CO)O1 (stereo not given)
inactive: [19] 96 % of control | dose: 200.0 mg/kg/injection, schedule: Q01DX001 (ip), vehicle: carboxymethylcellulose (CMC) 98 % of control | [20] 93 % of control

[O-][N+](Cc1ccccc1)=Nc1ccccc1
inactive: [13] 100 % of control | [14] 96 % of control | [15] 89 % of control

COc1cc(OC)c(NC(=O)NC(C)(C)C)cc1Cl
inactive: [10] 93 % of control | dose: 200.0 mg/kg/injection, schedule: Q01DX009 (ip), vehicle: Klucel (hydroxypropylcellulose) (HPC) 95 % of control | dose: 400.0 mg/kg/injection, schedule: Q01DX009 (ip), vehicle: Klucel (hydroxypropylcellulose) (HPC) 98 % of control

Cc1cccc(NC(C(=O)O)c2ccccc2)c1 (stereo not given)
inactive: [4] 100 % of control | [5] 93 % of control | [6] 89 % of control

CCOC(=O)C(CCC1=NC(C)(C)CC(C)O1)C(=O)OCC (stereo not given)
inactive: [1] 94 % of control | [2] 101 % of control | [3] 94 % of control

CCC/C=C/C(O)C1CCCCC1 (stereo not given)
inactive: [17] 92 % of control | [11] 95 % of control | [12] 95 % of control

CC(=O)SCC(C)CCl (stereo not given)
inactive: dose: 100.0 mg/kg/injection, schedule: Q04DX003 (ip), vehicle: saline 102 % of control | dose: 200.0 mg/kg/injection, schedule: Q04DX003 (ip), vehicle: saline 107 % of control | dose: 400.0 mg/kg/injection, schedule: Q04DX003 (ip), vehicle: saline 104 % of control
